US20110152087A1, “Herbicidal compositions comprising flufenacet” (Bayer CropScience AG, priority 2009, published 2011)

Key:
Assay type in all cases: in vivo
[1] = test system: ALOMY=Alopecurus myosuroides=weed; experiment: Greenhouse trial, post-emergence action against weeds (test method 1); settings: PO application, about 3 weeks after application; g of AS/ha: flufenacet 120, diclofop 378, diflufenican 120, mixture 120+378+120
Description: (§1) In the standard design of the test, seeds of various broad-leaved weed and weed grass biotypes (origins) were sown in a 8-13 cm diameter pot filled with natural soil of a standard field soil (loamy silt; non-sterile) and covered with a covering soil layer of about 1 cm. The pots were then cultivated in a greenhouse (12-16 h of light, temperature day 20-22° C., night 15-18° C.) until the time of application. The pots were treated on a laboratory track sprayer with spray liquors comprising the compositions according to the invention, mixtures of the prior art or components used individually. Application of the active compounds or active compound combinations formulated as WG, WP, EC or otherwise was carried out at the appropriate growth stages of the plants. The application rate for the spray application was 100-600 l of water/ha. After the treatment, the plants were returned to the greenhouses.
(§2) About 3 weeks after the application, the soil action or/and foliar action was assessed visually according to a scale of 0-100% in comparison to an untreated comparative group: 0%=no noticeable effect compared to the untreated comparative group; 100%=full effect compared to the untreated comparative group.
(§3) (notes: the term “seeds” also includes vegetative propagation forms such as, for example, rhizome pieces; abbreviations used: h light=hours of illumination, g of AS/ha=gram of active substance per hectare, l/ha=liter per hectare, S=sensitive, R=resistant) • 1. Post-emergence action against weeds: seeds of various broad-leaved weed and weed grass biotypes (origins) were sown in a 8-13 cm diameter pot filled with natural soil of a standard field soil (loamy silt; non-sterile) and covered with a covering soil layer of about 1 cm. The pots were then cultivated in a greenhouse (12-16 h of light, temperature day 20-22° C., night 15-18° C.) until the time of application. The pots were treated at various BBCH stages between 11-25 of the seeds/plants, i.e. generally between two to three weeks after the start of the cultivation, on a laboratory track sprayer with spray liquors comprising the compositions according to the invention, mixtures or components used individually, as WG, WP, EC or other formulations. The application rate for the spray application was 100-600 l of water/ha. After the treatment, the plants were returned to the greenhouses and, when required, treated with fertilizer and watered. • 2. Selective post-emergence action: seeds of various crop species (origins) were sown in a 8-13 cm diameter pot filled with natural soil of a standard field soil (loamy silt; non-sterile) and covered with a covering soil layer of about 1 cm. The pots were then cultivated in a greenhouse (12-16 h of light, temperature day 20-22° C., night 15-18° C.) until the time of application. The pots were treated at various BBCH stages between 11-32 of the seeds/plants, i.e. generally between two to four weeks after the start of the cultivation, on a laboratory track sprayer with spray liquors comprising the compositions according to the invention, mixtures or components used individually, as WG, WP, EC or other formulations. The application rate for the spray application was 100-600 l of water/ha. After the treatment, the plants were returned to the greenhouses and, when required, treated with fertilizer and watered. The pots were cultivated in a greenhouse (12-16 h light, temperature day 20-22° C., night 15-18° C.).
(§4) E=(A+B+C)−(A×B+A×C+B×C)/100+(A×B×C)/10 000 • in which: • A, B, C=each the activity of the components A or B or C in percent at a dosage of a or b gram of AS/ha; • E^C=expected value according to Colby in % at a dosage of a+b gram of AS/ha. • Δ=difference (%) of measured value−%-to expected value−%-(measured value minus expected value) • Δ^D=difference (%) of the measured value of an observation A−%-to the measured value of an observation B−%. […]

[2] = test system: APESV=Apera Spica-venti=weed; experiment: as above; settings: PO application, about 3 weeks after application; g of AS/ha: flufenacet 120, diclofop 378, diflufenican 120, mixture 120+378+120
Description: as §1, §2, §3, §4

[3] = test system: STEME=Stellaria media=weed; experiment: as above; settings: PO application, about 3 weeks after application; g of AS/ha: flufenacet 120, diclofop 378, diflufenican 120, mixture 120+378+120
Description: as §1, §2, §3, §4

[4] = test system: TRZAS=Triticum aestivum, summer wheat=crop plant; experiment: Greenhouse trial, selective post-emergence action on crop plants (test method 2)
Description: as §1, §2, §3, §4

[5] = test system: TRZAW=Triticum aestivum, winter wheat=crop plant; experiment: as above
Description: as §1, §2, §3, §4

[6] = PO application, about 3 weeks after application, g of AS/ha: flufenacet 120, diclofop 378, diflufenican 120, mixture 120+378+120

SMILES	activity ALOMY, visual assessment on scale 0-100% versus untreated [1]	activity APESV, visual assessment on scale 0-100% versus untreated [2]	activity STEME, visual assessment on scale 0-100% versus untreated [3]	action on crop plant TRZAS, visual assessment on scale 0-100% versus untreated [4, 6]	action on crop plant TRZAW, visual assessment on scale 0-100% versus untreated [5, 6]	action on crop plant TRZAS, visual assessment on scale 0-100% versus untreated ([4]; in vivo, po)	action on crop plant TRZAW, visual assessment on scale 0-100% versus untreated ([5]; in vivo, po)
CC(Oc1ccc(Oc2ccc(Cl)cc2Cl)cc1)C(=O)O (racemic) [(B) diclofop, (±)-2-[4-(2,4-dichlorophenoxy)phenoxy]propanoic acid]	15%	0%	0%	10%	20%	–	–
CC(C)N(C(=O)COc1nnc(C(F)(F)F)s1)c1ccc(F)cc1 [(A) flufenacet, N-(4-fluorophenyl)-N-(1-methylethyl)-2-[[5-(trifluoromethyl)-1,3,4-thiadiazol-2-yl]oxy]acetamide]	65%	60%	30%	–	–	40%	50%
O=C(Nc1ccc(F)cc1F)c1cccnc1Oc1cccc(C(F)(F)F)c1 [(C) diflufenican, N-(2,4-difluorophenyl)-2-[3-(trifluoromethyl)phenoxy]-3-pyridinecarboxamide]	10%	5%	30%	5%	5%	–	–
